{"source": "patent US20250195551A1", "about": "(L4 BIO LLC, priority 2023, published 2025)", "experiment": "Pharmacokinetic profiles of Ivermectin B1a in Sprague Dawley rat plasma after IV and oral administration", "type": "in vivo, Sprague Dawley rats", "conditions": "Ivermectin B1a in SD rat plasma; single IV 2 mg/kg; fasting; male", "protocol": "Thirty-six male Sprague Dawley rats were randomly assigned into four groups, with nine male rats in each group. All animals in all groups are fasted overnight prior to the experimental date.\nBlood samples were collected from 6 of 9 animals per group at 0.5, 1, 2, 3, 4, 6, 8, 24, 72, 120, 168 hours post-dose.", "data": [{"substance": "ivermectin", "values": [{"measurement": "AUC(0-t)", "result": "8259.31 ± 1032.95", "unit": "ng·h/mL"}, {"measurement": "AUC(0-∞)", "result": 8273.53, "unit": "ng·h/mL"}, {"measurement": "Cmax", "result": 1722.67, "unit": "ng/mL"}, {"measurement": "MRT(0-t)", "result": 10.58, "unit": "h"}, {"measurement": "MRT(0-∞)", "result": 10.81, "unit": "h"}, {"measurement": "T1/2", "result": "14.82 ± 0.72", "unit": "h"}, {"measurement": "Tmax", "result": 0.50, "unit": "h"}]}]}
